Where two headings read alike, the source gives them in different places.

One data set relates to RSV. As to conditions: read-out: EC50 (anti-RSV), cited from earlier work.
For data set [1], the system named is HSV-1 (Herpes Simplex virus, Type-1). The format is cell-based.
The subject of a further data set is BVDV. As to conditions: read-out: EC50 (anti-BVDV); cited from earlier work.
Data set [2] in a line: Cytotoxicity on host cells, mean over the host cell lines. As to conditions: human, bovine, hamster, monkey.

For orientation: EC50 means the midpoint of the concentration-response curve. With `O=c1n(Cc2nc3ccccc3n2CCCCO)c2cnccc2n1C1CC1` [BMS-433771], the EC50 in the data set on RSV (fusion inhibitor) is 21 nM. Consider `O=C(Nc1ccccc1F)N[C@H]1N=C(c2ccccc2)c2ccccc2NC1=O` [RSV-604], for which the EC50 in the data set with RSV (S-enantiomer) is 900 nM. As to `CN(C)CCCNc1ccc(/N=N/c2cccc([N+](=O)[O-])c2)cc1.Cl` [Compound 2, N,N-Dimethyl-N′-[4-(3-nitrophenylazo)phenyl]propane-1,3-diamine], the “S. I. (selectivity index), HSV-1” value in data set [1] came to 4.2. `Brc1ccc(Cn2ccc3nc(-c4ccccc4)nc-3c2)cc1` [BPIP, 5-[4-bromobenzyl]-2-phenyl-5H-imidazo[4,5-c]pyridine]: the EC50 in the data set with BVDV was 30 to 40 nM. “3-[(dipropylaminoethyl)thio]-5H-1,2,4-triazino[5,6-b]indole [VP32947]”: the 50% effective concentration (EC50) in the data set with BVDV is 30 to 40 nM.

The term CC50 denotes the concentration that lowers cell viability or growth by half. With `CN(C)CCCN(/N=N/c1cc(F)ccc1F)c1ccccc1` [Compound 29, 1-[1-(2,5-Difluorophenyl)-3-phenyltriazen-3-yl]-N,N-dimethyl-3-propanamine], it took 17500 nM to reach half-maximal cytotoxicity in data set [2] (CC50). On the same count and under the same terms, for `Fc1ccc(/N=N/c2ccc(NC[C@@H]3CCCN4CCCC[C@H]34)c3c2CCCC3)c(F)c1` [Compound 12] the value was 21500 nM.
